Assay [1] has as its system Staphylococcus aureus. The assay can be described thus: Antibacterial activity against methicillin-resistant Staphylococcus aureus ATCC 6548 incubated for 6 to 8 hrs by MABA. It counts as functional. The settings on record: time 6-8 hrs. (In general: Resazurin is reduced to fluorescent resorufin, in cell work by metabolically active cells.)
Assay [2] relates to Staphylococcus aureus. Nature of the assay: Antibacterial activity against methicillin-sensitive Staphylococcus aureus incubated for 6 to 8 hrs by MABA. It counts as functional. The settings on record: time 6-8 hrs.
The subject of assay [3] is Enterococcus faecium. Nature of the assay: Antibacterial activity against vancomycin-resistant Enterococcus faecium incubated for 6 to 8 hrs by MABA. It counts as functional. The conditions noted are these: time 6-8 hrs.
Assay [4] has as its system Enterococcus faecium. Nature of the assay: Antibacterial activity against vancomycin-sensitive Enterococcus faecium incubated for 6 to 8 hrs by MABA. The settings on record: time 6-8 hrs. It is filed as functional.
Another assay relates to A549. The assay can be described thus: Cytotoxicity against human A549 cells assessed as reduction in cell viability after 72 hrs by MTT assay. It is filed as functional, cell-based. The settings on record: Homo sapiens, A549, 72 h. In general terms: Tetrazolium assays rely on reduction of a dye to a coloured formazan, in cell work by metabolically active cells.
For the next assay, the system named is HeLa. Nature of the assay: Cytotoxicity against human HeLa cells assessed as reduction in cell viability after 72 hrs by MTT assay. It is filed as functional, cell-based. The settings on record: Homo sapiens, HeLa, 72 h.
The next assay deals with HepG2. Nature of the assay: Cytotoxicity against human HepG2 cells assessed as reduction in cell viability after 72 hrs by MTT assay. It is filed as functional, cell-based. The conditions noted are these: Homo sapiens, HepG2, 72 h.
The next assay concerns MCF7. The assay can be described thus: Cytotoxicity against human MCF7 cells assessed as reduction in cell viability after 72 hrs by MTT assay. It counts as functional, cell-based. The settings on record: Homo sapiens, MCF7, 72 h.
In another assay the test system is Vero. The assay can be described thus: Cytotoxicity against African green monkey Vero cells assessed as reduction in cell viability after 72 hrs by MTT assay. It is filed as cell-based, Chlorocebus sabaeus. The conditions noted are these: Chlorocebus sabaeus, Vero, 72 h.

Each structure is given as a SMILES string. In brackets after ≈: the same amount, converted by molar mass. Bounds are passed on as bounds.

Broadly, the MIC is the least concentration at which growth counts as inhibited. As a reminder, the IC50 is the midpoint of a concentration-inhibition curve. For the compound `COc1cc2c(c(O)c1Cl)C(=O)c1c(cc3c(Cl)c(O)cc(-c4c(C)c(Cl)c(OC)c(Cl)c4O)c3c1O)C2(C)C`, the minimum inhibitory concentration (MIC) against Staphylococcus aureus [1] turned out to be 2.5 µg/mL (≈ 4 µM); against Staphylococcus aureus [2], 2.5 µg/mL (≈ 4 µM); against Enterococcus faecium [3], 5 µg/mL (≈ 8.01 µM); in the assay with Enterococcus faecium [4], 2.5 µg/mL (≈ 4 µM). For the same compound, the half-maximal inhibitory concentration (IC50) is 5.6 µM with A549; 9.9 µM in the assay with HeLa; 8.8 µM in the assay with HepG2; 13.9 µM in the assay on MCF7; 12 µM in the assay on Vero.
Take `COc1cc(C)c(-c2cc(OC)cc3cc4c(c(O)c23)C(=O)c2c(cc(O)c(Cl)c2O)C4(C)C)c(O)c1`: the minimum inhibitory concentration (MIC) against Staphylococcus aureus [1] was found to be 2.5 µg/mL (≈ 4.8 µM); against Staphylococcus aureus [2] it was 2.5 µg/mL (≈ 4.8 µM); against Enterococcus faecium [3], 5 µg/mL (≈ 9.6 µM); in the assay on Enterococcus faecium [4], 2.5 µg/mL (≈ 4.8 µM). For the same compound, the IC50 was 5.6 µM in the assay on A549; 7 µM with HeLa; 12.1 µM with HepG2; 24.3 µM in the assay with MCF7; 18.9 µM in the assay on Vero.
As for `COc1cc(-c2c(O)cc(O)c(Cl)c2C)c2c(O)c3c(cc2c1)C(C)(C)c1cc(OC)c(Cl)c(O)c1C3=O`, the MIC was 1.25 µg/mL (≈ 2.25 µM) against Staphylococcus aureus [1], 2.5 µg/mL (≈ 4.5 µM) in the assay on Staphylococcus aureus [2], 5 µg/mL (≈ 9 µM) in the assay on Enterococcus faecium [3] and 1.25 µg/mL (≈ 2.25 µM) against Enterococcus faecium [4]. Besides, the IC50 was 6.4 µM with A549; 5.3 µM in the assay on HeLa; 7.3 µM with HepG2; 10.7 µM in the assay with MCF7; 13.7 µM with Vero.
Regarding `COc1cc(C)c(-c2cc(O)c(Cl)c3cc4c(c(O)c23)C(=O)c2c(cc(O)c(Cl)c2O)C4(C)C)c(O)c1`, the minimal inhibitory concentration (MIC) with Staphylococcus aureus [1] is 1.25 µg/mL (≈ 2.31 µM); against Staphylococcus aureus [2] it was 1.25 µg/mL (≈ 2.31 µM); in the assay with Enterococcus faecium [3], 5 µg/mL (≈ 9.24 µM); against Enterococcus faecium [4], 2.5 µg/mL (≈ 4.62 µM). Further, the IC50 with A549 was determined as 8.9 µM; with HeLa, 11 µM; with HepG2 it was 9.4 µM; with MCF7, 21.7 µM; in the assay with Vero, 47 µM.
Turning to `COc1c(Cl)c(C)c(-c2cc(O)cc3cc4c(c(O)c23)C(=O)c2c(cc(O)c(Cl)c2O)C4(C)C)c(O)c1Cl`, the MIC in the assay on Staphylococcus aureus [1], in the assay on Staphylococcus aureus [2], against Enterococcus faecium [3] and against Enterococcus faecium [4] was 1.25 µg/mL (≈ 2.17 µM) throughout. The 50% inhibitory concentration (IC50) turned out to be 5 µM in the assay on A549; 6 µM in the assay on HeLa; 7.7 µM in the assay with HepG2; 14.4 µM in the assay with MCF7; 12.4 µM with Vero.
Regarding `COc1cc(C)c(-c2cc(OC)cc3cc4c(c(O)c23)C(=O)c2c(O)cc(O)cc2C4(C)C)c(O)c1`, the MIC in the assay on Staphylococcus aureus [1], in the assay on Staphylococcus aureus [2], against Enterococcus faecium [3] and in the assay with Enterococcus faecium [4] was 1.25 µg/mL (≈ 2.57 µM) throughout. For the same compound, the concentration for half-maximal inhibition (IC50) in the assay with A549 amounted to 3.3 µM; with HeLa, 4.7 µM; in the assay on HepG2, 4.4 µM; in the assay on MCF7 it was 7.1 µM; in the assay on Vero, 6.4 µM.
In the case of `COc1cc(C)c(-c2cc(OC)c(Cl)c3cc4c(c(O)c23)C(=O)c2c(cc(O)c(Cl)c2O)C4(C)C)c(O)c1`, the minimum inhibitory concentration (MIC) against Staphylococcus aureus [1] turned out to be 1.25 µg/mL (≈ 2.25 µM); against Staphylococcus aureus [2], 1.25 µg/mL (≈ 2.25 µM); in the assay with Enterococcus faecium [3] it was 2.5 µg/mL (≈ 4.5 µM); with Enterococcus faecium [4], 2.5 µg/mL (≈ 4.5 µM). Further, the IC50 with A549 worked out at 4.8 µM; in the assay with HeLa, 6 µM; with HepG2, 7.2 µM; with MCF7, 7.6 µM; in the assay on Vero, 4.8 µM.
Turning to `CN[C@H](CC(C)C)C(=O)N[C@H]1C(=O)N[C@@H](CC(N)=O)C(=O)N[C@H]2C(=O)N[C@H]3C(=O)N[C@H](C(=O)N[C@H](C(=O)O)c4cc(O)cc(O)c4-c4cc3ccc4O)[C@H](O)c3ccc(c(Cl)c3)Oc3cc2cc(c3O[C@@H]2O[C@H](CO)[C@@H](O)[C@H](O)[C@H]2O[C@H]2C[C@](C)(N)[C@H](O)[C@H](C)O2)Oc2ccc(cc2Cl)[C@H]1O` [VANCOMYCIN], the minimal inhibitory concentration (MIC) with Staphylococcus aureus [1] is 0.63 µg/mL (≈ 0.435 µM); in the assay on Enterococcus faecium [3] it was > 40 µg/mL; against Enterococcus faecium [4], 1.25 µg/mL (≈ 0.863 µM).
As to `COc1cc2c(c(O)c1Cl)C(=O)c1c(cc3c(Cl)c(OC)cc(-c4c(O)cc(O)c(Cl)c4C)c3c1O)C2(C)C`, the MIC in the assay with Staphylococcus aureus [1] was determined as 2.5 µg/mL (≈ 4.24 µM); in the assay on Staphylococcus aureus [2], 2.5 µg/mL (≈ 4.24 µM); against Enterococcus faecium [3] it was 5 µg/mL (≈ 8.48 µM); in the assay with Enterococcus faecium [4] it was 1.25 µg/mL (≈ 2.12 µM). Moreover, the IC50 was 5.2 µM with A549; 6.3 µM in the assay on HeLa; 6.2 µM in the assay on HepG2; 10.1 µM with MCF7; 7.9 µM in the assay on Vero.
In the case of `COc1cc(C)c(-c2cc(O)cc3cc4c(c(O)c23)C(=O)c2c(cc(O)c(Cl)c2O)C4(C)C)c(O)c1`, the MIC in the assay with Staphylococcus aureus [1] came out at 5 µg/mL (≈ 9.86 µM); against Staphylococcus aureus [2] it was 5 µg/mL (≈ 9.86 µM); in the assay with Enterococcus faecium [3] it was 10 µg/mL (≈ 19.7 µM); with Enterococcus faecium [4] it was 2.5 µg/mL (≈ 4.93 µM). Further, the half-inhibitory concentration (IC50) was 13.3 µM with A549; 15.2 µM in the assay on HeLa; 11.9 µM in the assay on HepG2; 40.3 µM in the assay on MCF7; 33 µM with Vero.
In the case of `COc1cc(C)c(-c2cc(O)cc3cc4c(c(O)c23)C(=O)c2c(cc(OC)c(Cl)c2OC)C4(C)C)c(O)c1`, the MIC with Staphylococcus aureus [1], in the assay on Staphylococcus aureus [2], in the assay with Enterococcus faecium [3] and in the assay with Enterococcus faecium [4] was 2.5 µg/mL (≈ 4.67 µM) throughout. Moreover, the half-maximal inhibitory concentration (IC50) in the assay on A549 is 3.3 µM; with HeLa, 3.9 µM; in the assay with HepG2, 5.7 µM; in the assay with MCF7, 5 µM; with Vero, 3 µM.
Consider `COc1cc2c(c(O)c1Cl)C(=O)c1c(cc3cc(O)cc(-c4c(C)c(OC)c(OC)c(Cl)c4O)c3c1O)C2(C)C`, for which the MIC amounted to 1.25 µg/mL (≈ 2.14 µM) in the assay on Staphylococcus aureus [1], 1.25 µg/mL (≈ 2.14 µM) in the assay on Staphylococcus aureus [2], 5 µg/mL (≈ 8.54 µM) in the assay with Enterococcus faecium [3] and 2.5 µg/mL (≈ 4.27 µM) against Enterococcus faecium [4]. The half-inhibitory concentration (IC50) with A549 worked out at 9.1 µM; in the assay with HeLa, 7.2 µM; in the assay with HepG2, 9.9 µM; in the assay on MCF7 it was 17.8 µM; in the assay with Vero it was 14.5 µM.
